Test results: US20260000713A1, “MICROBIAL M[…] INTESTINAL INFLAMMATION” (CEDARS-SINAI MEDICAL CENTER, priority 2021, published 2026)
Like-named read-outs stand apart in the source and are kept apart here.

How the values were obtained:
[1] = tested on: GF WT mice or GF Tl1a-tg mice; conditions: 200 mM sodium acetate in drinking water for 3 months, vs regular drinking water
Experimental: (§1) Histology Scoring: Ileal tissues were collected 1-2 cm long near cecum, paraffin-embedded and stained with H&E for histological analysis. Severity of ileal inflammation was evaluated in a blinded manner according to previously described criteria by two trained animal pathologists. Spontaneous ileitis was evaluated by scoring the degree of inflammation, extent of involvement, crypt damage and villus changes as described. GF mice were evaluated using a scoring criterion.
The impact of acetate on the development of ileitis was examined.
(§2) Acetate supplementation: Sodium acetate (Sigma Aldrich) was added at 200 mM to drinking water. SPF mice were supplemented with acetate water for 2 or 4 months starting at 2 months of age. GF mice were supplemented with acetate water for 3 months starting at 2-3 months of age.
12-week-old littermate GF WT mice or GF Tl1a-tg mice were treated with 200 mM of sodium acetate in drinking water (ad libitum) for 3 months. […] The number of mice used was 12 to 22 mice per group.

IFN-γ = conditions: MLN cells restimulated with anti-CD3ε and anti-CD28 for 3 days
Experimental: as §2
Isolation of mesenteric lymph nodes mononuclear cells, restimulation, and ELISA: Mesenteric lymph nodes (MLN) were removed from the peritoneal cavity and mesenteric fat was removed. Single cell suspension was prepared by crushing MLN between two glass slides and passing the cell suspension through a 40 μm cell strainer. Single-cell suspensions were restimulated with anti-CD3ε (0.5 μg/ml) and anti-CD28 (1 μg/ml) antibodies for 3 days. Cytokine levels in supernatants were measured by ELISA. Cytokine concentration in culture supernatants was assayed by ELISA for murine IFN-γ (eBioscience).
(§3) The groups depicted include WT H2O, WT Ac (acetate), Tl1a-tg H2O, and Tl1a-tg Ac. Around 12-19 mice were used in each group. […] Around 6 mice were used per group.

Paneth cells = conditions: acetate treated GF WT or Tl1a-tg mice
Experimental: as §2, §3

[2] = tested on: SPF WT mice or tl1a-tg mice
Experimental: as §1, §2
In a second set of experiments, SPF WT mice or tl1a-tg mice were treated with acetate in drinking water for 2 or 4 months starting at 2 months of age. […] 9 to 23 mice were used per group.

[3] = tested on: Germ-free IBD susceptible mice; conditions: Germ-free Tl1a-Tg mice receiving acetate vs standard water
Experimental: as §2

With `CC(=O)[O-].[Na+]` [acetate, Sodium acetate] as the compound, how does the “ileal inflammation (ileum histoscore)” value ([1]; GF Tl1a-tg mice) read?
The value was “developed ileal inflammation”.

And the “ileal inflammation (ileum histoscore)” value ([1]; GF WT mice)?
Its value is “developed ileal inflammation”.

What about the “IFN-γ secretion by MLN” value (IFN-γ; acetate treated GF Tl1a-tg mice) of the same compound?
Its value is “significantly elevated IFN-γ secretion”.

What about the “IFN-γ secretion by MLN” value (IFN-γ; acetate treated GF WT mice) of the same compound?
The value was “significantly elevated IFN-γ secretion”.

And the “Paneth cell granule maturation (percentage of Paneth cells with D0, D1, D2, D3 features)” value (Paneth cells)?
Its value is “did not result in normal Paneth cell granule maturation”.

And the “ileitis (histoscore)” value ([2]; SPF Tl1a-tg mice, acetate in drinking water for 2 months starting at 2 months of age, vs age-matched water controls)?
Its value is “led to ileitis”.

And the “ileal inflammation (histoscore)” value ([2]; SPF WT mice, acetate in drinking water for 4 months starting at 2 months of age, vs water controls)?
The value was “developed ileal inflammation”.

And the “cecal collagen deposition (fibrosis)” value [3]?
Its value is “increase in cecal collagen deposition”.
